Test results reported in the supplement of paper PMC10307832.

Assays:
Test in all cases: relative viability (nuclei count vs DMSO), 5 days (fraction); higher = more cells survive
JZL-184 + Bortezomib = compound: C1CN(CCC1C(C2=CC3=C(C=C2)OCO3)(C4=CC5=C(C=C4)OCO5)O)C(=O)OC6=CC=C(C=C6)[N+](=O)[O-] [JZL-184] + CC(C)C[C@H](NC(=O)[C@H](Cc1ccccc1)NC(=O)c1cnccn1)B(O)O [Bortezomib] (partner 0.002 µM)
Summary of the method: (§1)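 Dosing by pin tool came one day after lung cancer cell lines were seeded in 1536-well plates, using either one drug or a fixed anchor-drug dose plus five library-drug doses (not always all listed) in √10 steps. After 5 days, nuclei were counted on 4× images. Relative viability is treated-well nuclei count divided by vehicle-well nuclei count, and values are medians of duplicate plates.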

JZL-184 + Foretinib = compound: C1CN(CCC1C(C2=CC3=C(C=C2)OCO3)(C4=CC5=C(C=C4)OCO5)O)C(=O)OC6=CC=C(C=C6)[N+](=O)[O-] [JZL-184] + COc1cc2c(Oc3ccc(NC(=O)C4(C(=O)Nc5ccc(F)cc5)CC4)cc3F)ccnc2cc1OCCCN1CCOCC1 [Foretinib] (partner 0.25 µM)
Summary of the method: as §1

JZL-184 + Tozasertib = compound: C1CN(CCC1C(C2=CC3=C(C=C2)OCO3)(C4=CC5=C(C=C4)OCO5)O)C(=O)OC6=CC=C(C=C6)[N+](=O)[O-] [JZL-184] + Cc1cc(Nc2cc(N3CCN(C)CC3)nc(Sc3ccc(NC(=O)C4CC4)cc3)n2)n[nH]1 [Tozasertib] (partner 0.1 µM)
Summary of the method: as §1

JZL-184 + Vorinostat = compound: C1CN(CCC1C(C2=CC3=C(C=C2)OCO3)(C4=CC5=C(C=C4)OCO5)O)C(=O)OC6=CC=C(C=C6)[N+](=O)[O-] [JZL-184] + O=C(CCCCCCC(=O)Nc1ccccc1)NO [Vorinostat] (partner 1 µM)
Summary of the method: as §1

JZL-184 + Luminespib = compound: C1CN(CCC1C(C2=CC3=C(C=C2)OCO3)(C4=CC5=C(C=C4)OCO5)O)C(=O)OC6=CC=C(C=C6)[N+](=O)[O-] [JZL-184] + CCNC(=O)c1noc(-c2cc(C(C)C)c(O)cc2O)c1-c1ccc(CN2CCOCC2)cc1 [Luminespib] (partner 0.01 µM)
Summary of the method: as §1

Cell Line	relative viability (JZL-184 + Bortezomib; first compound 0.04 µM)	relative viability (JZL-184 + Bortezomib; first compound 0.4 µM)	relative viability (JZL-184 + Bortezomib; first compound 1.265 µM)	relative viability (JZL-184 + Bortezomib; first compound 4 µM)	relative viability (JZL-184 + Foretinib; first compound 0.04 µM)	relative viability (JZL-184 + Foretinib; first compound 0.4 µM)	relative viability (JZL-184 + Foretinib; first compound 1.265 µM)	relative viability (JZL-184 + Foretinib; first compound 4 µM)	relative viability (JZL-184 + Tozasertib; first compound 0.04 µM)	relative viability (JZL-184 + Tozasertib; first compound 0.4 µM)	relative viability (JZL-184 + Tozasertib; first compound 1.265 µM)	relative viability (JZL-184 + Tozasertib; first compound 4 µM)	relative viability (JZL-184 + Vorinostat; first compound 0.04 µM)	relative viability (JZL-184 + Vorinostat; first compound 0.4 µM)	relative viability (JZL-184 + Vorinostat; first compound 1.265 µM)	relative viability (JZL-184 + Vorinostat; first compound 4 µM)	relative viability (JZL-184 + Luminespib; first compound 0.04 µM)	relative viability (JZL-184 + Luminespib; first compound 0.4 µM)	relative viability (JZL-184 + Luminespib; first compound 1.265 µM)	relative viability (JZL-184 + Luminespib; first compound 4 µM)
HCC-366	1.26	1.01	1.09	0.978	0.986	0.889	0.931	0.958	0.133	0.508	0.109	0.0909	0.408	0.242	0.361	0.313	–	–	–	–
HCC-827	1.11	0.911	1.07	1.02	1.12	0.962	1.01	0.943	0.421	0.383	0.449	0.411	0.942	0.244	0.577	0.839	0.804	0.587	0.91	0.671
HOP-62	1.09	0.862	0.809	0.856	1.16	1.08	1.09	1.03	0.356	0.402	0.366	0.335	0.659	0.601	0.706	0.612	1.03	0.968	0.902	0.957
IA-LM	1.04	0.786	0.844	0.866	1.47	1.08	1.22	1.11	–	–	–	–	0.893	0.988	0.965	0.989	–	–	–	–
LC-2-ad	1.16	0.868	0.99	0.942	1.13	0.847	0.886	0.955	0.451	0.429	0.511	0.385	0.774	0.67	0.676	0.669	1.27	0.891	1.11	1.03
LCLC-97TM1	0.612	0.624	0.804	0.573	1.01	0.981	0.979	0.867	0.41	0.177	0.242	0.242	1.03	0.644	0.619	0.749	0.812	0.66	0.828	0.653
LCLC-103H	0.992	1.08	0.985	1.02	0.833	0.682	0.724	0.529	0.488	0.521	0.521	0.529	0.72	0.752	0.768	0.734	1.04	0.829	0.835	0.866
LK-2	–	–	–	–	1.27	1.11	1.31	1.5	0.166	0.163	0.171	0.181	0.275	0.309	0.251	0.295	0.217	0.194	0.203	0.17
NCI-H358	–	–	–	–	0.758	0.722	0.72	0.649	0.104	0.118	0.0969	0.101	0.776	0.768	0.677	0.69	0.387	0.279	0.308	0.304
NCI-H522	–	–	–	–	–	–	–	–	0.668	0.5	0.618	0.563	0.937	0.858	0.952	0.947	1.29	1.14	1.18	1.29
NCI-H1395	–	–	–	–	0.918	0.972	0.965	0.856	0.684	0.738	0.827	0.748	0.651	0.621	0.811	0.683	0.63	0.788	0.675	0.738
NCI-H1703	0.349	0.213	0.359	0.467	0.356	0.317	0.402	0.295	–	–	–	–	–	–	–	–	–	–	–	–
NCI-H1792	1.13	0.405	0.954	0.952	–	–	–	–	–	–	–	–	–	–	–	–	0.401	0.383	0.56	0.408
NCI-H1793	–	–	–	–	0.63	0.84	0.865	0.583	0.289	0.385	0.409	0.233	0.663	0.571	0.963	0.64	0.162	0.165	0.153	0.156
NCI-H1944	–	–	–	–	0.893	0.906	0.938	0.886	0.283	0.251	0.281	0.248	0.528	0.476	0.565	0.475	0.615	0.682	0.766	0.754
NCI-H2170	–	–	–	–	1.05	0.941	0.977	0.966	0.83	0.646	0.787	0.66	0.922	0.754	0.811	0.737	0.712	0.651	0.762	0.491
NCI-H2342	–	–	–	–	1.04	1.11	1.26	1.12	0.432	0.399	0.485	0.449	0.809	0.676	0.719	0.813	0.687	0.61	0.683	0.783
SK-MES-1	–	–	–	–	1.01	1.02	1.02	0.86	1.04	0.878	0.908	0.706	1.12	1.05	1.05	0.955	0.913	0.765	0.874	0.726
SW 900	–	–	–	–	1.1	0.858	0.824	0.799	0.497	0.459	0.605	0.482	0.496	0.4	0.587	0.527	0.16	0.18	0.18	0.196
